According to PMC12299477 (Viruses, 2025):
Like-named read-outs stand apart in the source and are kept apart here.

How the values were obtained:
[1] = system: Hep-2 cells; assay: Cytotoxic effect microscopically visible in the RSV-A2 screening; type: cell-based, human; design: key: -: Cytotoxic effect microscopically visible
[2] = system: MRC-5 cells; assay: Cytotoxic effect microscopically visible in the HCoV-OC43 screening; type: cell-based, human; design: key: -: Cytotoxic effect microscopically visible; conditions: 33 µM
[3] = system: HCoV-OC43; assay: Virus inhibition assay (focus reduction), HCoV-OC43 on MRC-5 cells; type: cell-based, human coronavirus; conditions: for EC50: Betacoronavirus 1, OC43, MRC5, read-out: EC50 (µM) (95% CI)
[4] = Cell viability MTS assay on Hep-2 cells; conditions: human
[5] = system: RSV-A2; assay: Virus inhibition assay (plaque reduction), RSV-A2 on Hep-2 cells; type: cell-based; conditions: human respiratory syncytial virus; for activity at 0.3 µM / activity at 3 µM / activity at 33 µM: HEp-2, 72 h, read-out: Residual Virus Infectivity (%) RSV-A2
[6] = system: MDCK cells; assay: Cytotoxic effect microscopically visible in the IFV-A H1N1 screening; type: cell-based, canine; design: key: -: Cytotoxic effect microscopically visible; conditions: 33 µM
[7] = Cell viability MTS assay on MRC-5 cells; type: cell-based; conditions: human, same conditions as HCoV inhibition assay, read-out: CC50 (µM) (95% CI)
[8] = in vitro; conditions: human
[9] = Betacoronavirus 1, OC43, MRC5, 20 h, read-out: Residual Virus Infectivity (%) HCoV-OC43

SMILES: O=C(N[C@@H](Cc1ccc(O)cc1)C(=O)O)c1cc(-c2ccccc2)c(=O)n2c1sc1ccc(OC3CCCC3)cc12 [Compound 17]
- Cytotoxic effect microscopically visible ([1]; 33 µM): -

SMILES: O=C(O)CC(NC(=O)c1cc(-c2ccccc2)c(=O)n2c1sc1ccc(OC3CCCCC3)cc12)c1ccccc1 (stereo not drawn) [Compound 6]
- Cytotoxic effect microscopically visible ([1]; 3 µM): -
- Cytotoxic effect microscopically visible ([1]; 33 µM): -
- Cytotoxic effect microscopically visible [2]: -

SMILES: O=C(NCc1ccc(O)cc1)c1cc(-c2ccccc2)c(=O)n2c1sc1ccc(OC3CCCCC3)cc12 [Compound 13]
- activity at 0.3 µM [3, 9]: 100%
- activity at 3 µM [3, 9]: 100%
- activity at 33 µM [3, 9]: 64%
- CC50 [4]: > 200 µM
- activity at 0.3 µM [5]: 100%
- activity at 3 µM [5]: 15%
- activity at 33 µM [5]: 0%
- EC50 ([5]; HEp-2, read-out: EC50 (µM) (95% CI)): 2.87 µM

SMILES: CCN(CC)CCOc1ccc(-c2cc(C(=O)Oc3ccc(S(N)(=O)=O)cc3)c3sc4ccc(OC5CCCCC5)cc4n3c2=O)cc1 [Compound 22]
- Cytotoxic effect microscopically visible ([1]; 33 µM): -
- Cytotoxic effect microscopically visible [6]: -

SMILES: NS(=O)(=O)c1ccc(OC(=O)c2ccc(=O)n3c2sc2ccc(OC4CCCCC4)cc23)cc1 [Compound 24]
- Cytotoxic effect microscopically visible ([1]; 33 µM): -
- Cytotoxic effect microscopically visible [2]: -
- Cytotoxic effect microscopically visible [6]: -

SMILES: O=C(N[C@@H](CO)C(=O)O)c1cc(-c2ccccc2)c(=O)n2c1sc1ccc(OC3CCCCC3)cc12 [Compound 8]
- activity at 0.3 µM [5]: 100%
- activity at 3 µM [5]: 100%
- activity at 33 µM [5]: 98%

SMILES: CCN(CC)CCCC(C)Nc1ccnc2cc(Cl)ccc12 (stereo not drawn) [chloroquine, reference compound]
- EC50 [3]: 0.19 µM

SMILES: O=C(c1cc(-c2ccccc2)c(=O)n2c1sc1ccc(OC3CCCCC3)cc12)N1CCC[C@@H](O)C1 [Compound 11]
- Cytotoxic effect microscopically visible ([1]; 3 µM): -
- Cytotoxic effect microscopically visible ([1]; 33 µM): -
- Cytotoxic effect microscopically visible [2]: -
- Cytotoxic effect microscopically visible [6]: -

SMILES: O=C(O)CCNC(=O)c1cc(-c2ccccc2)c(=O)n2c1sc1ccc(OC3CCCCC3)cc12 [Compound 10]
- Cytotoxic effect microscopically visible ([1]; 33 µM): -
- EC50 [3]: 7.97 µM
- CC50 [7]: > 200 µM

SMILES: O=C(N[C@@H](Cc1ccc(O)cc1)C(=O)O)c1cc(-c2ccccc2)c(=O)n2c1sc1cc(OC3CCCCC3)ccc12 [Compound 5]
- Cytotoxic effect microscopically visible ([1]; 33 µM): -
- Cytotoxic effect microscopically visible [2]: -

SMILES: O=C(NCc1ccccc1)c1cc(-c2ccccc2)c(=O)n2c1sc1ccc(OC3CCCCC3)cc12 [Compound 3]
- activity at 0.3 µM [5]: 100%
- activity at 3 µM [5]: 93%
- activity at 33 µM [5]: 67%

SMILES: NC(=O)CCNC(=O)c1cc(-c2ccccc2)c(=O)n2c1sc1ccc(OC3CCCCC3)cc12 [Compound 12]
- Cytotoxic effect microscopically visible ([1]; 33 µM): -

SMILES: CC(C)C(CC(=O)O)NC(=O)c1cc(-c2ccccc2)c(=O)n2c1sc1ccc(OC3CCCCC3)cc12 (stereo not drawn) [Compound 19]
- Cytotoxic effect microscopically visible ([1]; 33 µM): -
- Cytotoxic effect microscopically visible [2]: -
- Cytotoxic effect microscopically visible [6]: -

SMILES: O=C(N[C@@H](Cc1ccc(O)cc1)C(=O)O)c1cc(-c2ccc(F)cc2)c(=O)n2c1sc1ccc(OC3CCCCC3)cc12 [Compound 14]
- Cytotoxic effect microscopically visible ([1]; 33 µM): -
- EC50 [3]: 1.09 µM
- CC50 [7]: 62.2 µM

SMILES: NC(=O)c1ncn([C@@H]2O[C@H](CO)[C@@H](O)[C@H]2O)n1 [ribavirin, reference compound]
- CC50 [8]: > 2.4 mM
- EC50 ([5]; RSV-A2, Hep-2 cells, read-out: EC50 (µM) (95% CI)): 37 µM
